≈ marks a conversion by molar mass, not a printed value. Where two headings read alike, the source gives them in different places.
Assays:
[1] = test system: Staphylococcus hominis; test: Minimum Inhibitory Concentration (MIC) growth inhibition test and Kull Synergy Index; type: cell-based
Method: (§1) The MIC test is a test on growth inhibition. Estimation of the Minimum Inhibitory Concentration (MIC) is executed in 96 well plates. Through the comparison of bacterial growth with positive and negative controls via optical density (OD), different concentrations of given test substances are evaluated. Bacteria are cultivated under adjusted conditions based on information of the German Collection of Microorganisms and Cell Cultures (DSMZ) and stored in 50% Glycerol prior to use. Afterwards, the following method was applied:
(§2) Adding growth medium (according to microorganism) to each well of the microplate. Adding the test-substances in different concentrations, positive controls (water controls only with medium) and negative controls (benchmarks according to organism). Adding the microorganism in a concentration of 10^6 CFU/ml (CFU=colony forming units). Incubation of the microplates at appropriate conditions.
(§3) According to resulting growth, substance concentrations are labelled either as inhibiting or not and the corresponding MIC is defined as the lowest concentration where a complete growth inhibition is visible. Experiments at concentration limits (highest concentration labelled as growth and lowest concentration labelled as inhibiting) are performed at least twice.
(§4) The synergistic activity of 1,2-alkanediols with cooling compounds was determined by measuring the corresponding minimum inhibitory concentrations (MIC values) according to the method described above for antimicrobial activity: Minimum Inhibitory Concentration (MIC)
(§5) In order to calculate the synergy index with MIC values, the Kull equation (I) was used as follows:
(§6) SI=(MICmix×PA)/MICA+(MICmix×PB)/MICB (I)
(§7) wherein • SI is the Synergy Index according to Kull • MICA is the MIC value for Substance A • MICB is the MIC value for Substance B • MICmix is the MIC value for the mixture of substances A and B • PA is the proportion of the substance A in the mixture • PB is the proportion of the substance B in the mixture
(§8) To verify that the tested combinations act synergistically against microorganisms of the natural microbiota of mammalian skin, a corresponding experiment was conducted with representative microbial species. The synergistic activities of mixtures of 1,2-heptanediol and Menthyl lactate as well as for 1,2-nonanediol and Menthyl lactate were determined by measuring the corresponding minimum inhibitory concentrations (MIC values) as indicated in the methods section.

[2] = test system: Corynebacterium xerosis; test: as above; type: cell-based; details: for MIC: Corynebacterium xerosis, read-out: MIC (ppm) Corynebacterium xerosis (converted)
Method: as §1, §2, §3, §4, §5, §6, §7, §8

[3] = Malodour coverage sensory test, trained panel, filter paper with sweat malodour; details: for malodour coverage ranking 6 h: after 6 h; for malodour coverage ranking 24 h: after 24 h; for malodour coverage ranking 48 h: after 48 h
Method: Malodour coverage was tested in an established setup with a trained panel (n=5-9). For this sensory test, a defined amount of the material was applied on a filter paper together with a defined amount of sweat malodour. For evaluation, the panelists were asked to rate the individual samples on a scale from 0 to 10 (0: odourless; 10: strongest imaginable). The results of the malodour rating for all materials were ranked and the position of the individual materials compared over time. A synergistic effect regarding reduction of malodour was found for all mixtures of Frescolat ML and 1,2-heptanediol after 24 h and 48 h, respectively.

[4] = test system: Staphylococcus aureus; test: Minimum Inhibitory Concentration (MIC) growth inhibition test, 96 well plates, OD; type: cell-based; details: Table 1
Method: (§9) The MIC test is a test on growth inhibition. Estimation of the Minimum Inhibitory Concentration (MIC) is executed in 96 well plates. Through the comparison of bacterial growth with positive and negative controls via optical density (OD), different concentrations of given test substances are evaluated. Bacteria are cultivated under adjusted conditions based on information of the German Collection of Microorganisms and Cell Cultures (DSMZ) and stored in 50% Glycerol prior to use. Afterwards, the following method was applied: Adding growth medium (according to microorganism) to each well of the microplate. Adding the test-substances in different concentrations, positive controls (water controls only with medium) and negative controls (benchmarks according to organism). Adding the microorganism in a concentration of 10^6 CFU/ml (CFU=colony forming units). Incubation of the microplates at appropriate conditions. According to resulting growth, substance concentrations are labelled either as inhibiting or not and the corresponding MIC is defined as the lowest concentration where a complete growth inhibition is visible. Experiments at concentration limits (highest concentration labelled as growth and lowest concentration labelled as inhibiting) are performed at least twice.

[5] = test system: Propionibacterium acnes; test: Minimum Inhibitory Concentration (MIC) growth inhibition test; type: cell-based; details: Cutibacterium acnes; Table 1; >5000: 5000 ppm tested, no growth inhibition
Method: as §9

[6] = test system: Escherichia coli; test: as above; type: cell-based; details: Table 1
Method: as §9

[7] = test system: Corynebacterium jeikeium; test: as above; type: cell-based; details: Table 1
Method: as §9

[8] = test system: Candida albicans; test: as above; type: cell-based; details: Table 1
Method: as §9

[9] = Table 3, single substances and mixtures with menthyl lactate, read-out: MIC (ppm) Staphylococcus hominis
[10] = Table 3, single substances and mixtures with menthyl lactate
[11] = Ranking: 1 = lowest malodour to 6 = strongest malodour, Table 6
[12] = Ranking: 1 = lowest malodour to 6 = strongest malodour, Table 5
[13] = Table 4, single substances and mixtures with further cooling agents
[14] = Ranking: 1 = highest malodour to 6 = lowest malodour, single diols at 0.5%, Table 7
[15] = Ranking: 1 = highest malodour to 6 = lowest malodour, single diols at 0.5%, Table 8
[16] = Ranking: 1 = highest malodour to 6 = lowest malodour, single diols at 0.5%, Table 9

In the case of `CC1CCC(C(C)C)C(OC(=O)C(C)O)C1` (single isomer, unassigned; (-)) [Menthyl lactate, (−)-Menthyl lactate], the MIC [1, 9] is reported as 250 µg/mL, the MIC [2, 10] is reported as 250 µg/mL and the “malodour coverage ranking 6 h” value [3, 11] is reported as 3.6. The “malodour coverage ranking 24 h” value [3, 12] was 3.6, the “malodour coverage ranking 24 h” value [3, 11] was 3.9 and the “malodour coverage ranking 48 h” value [3, 12] was 3.1.

With `CC1CCC(C(C)C)C(O)C1` (stereo not drawn) [Menthol] the MIC [2, 13] was 1000 µg/mL.

In the case of `CCCCCCCCCC(O)CO` (stereo not drawn) [1,2-C11, 1,2-undecandiol], the MIC ([1]; Table 1, read-out: Minimum Inhibitory Concentration (MIC) Staphylococcus hominis) is reported as 125 µg/mL, the MIC [4] is reported as 125 µg/mL (≈ 664 µM) and the MIC [5] is reported as 250 µg/mL (≈ 1330 µM). The MIC [6] was 250 µg/mL (≈ 1330 µM), the MIC [7] was 250 µg/mL (≈ 1330 µM) and the MIC [8] was 64 µg/mL (≈ 340 µM).

For `CCCCC(O)C(C)O` (stereo not drawn) [2,3-C7, 2,3-Heptanediol], the MIC [2, 13] was 12500 µg/mL, the “malodour coverage ranking 6 h” value [3, 14] was 3.2 and the “malodour coverage ranking 24 h” value [3, 14] was 3.5.

With `CCCCCCC(O)CO` (stereo not drawn) [1,2-C8, 1,2-Octanediol] the “malodour coverage ranking 24 h” value [3, 15] was 2.8.

With `CCCCCCCC(O)CO` (stereo not drawn) [1,2-C9, 1,2-nonanediol] the MIC [1, 9] was 1000 µg/mL, the “MIC (ppm) Corynebacterium xerosis” value [2, 10] was 2 500 ppm and the “MIC (ppm) Corynebacterium xerosis” value [2, 13] was 2 500 ppm. For the same compound, the “malodour coverage ranking 6 h” value [3, 11] was 4.2 and the “malodour coverage ranking 24 h” value [3, 11] was 3.9.

With `CCCCCC(O)C(C)O` (stereo not drawn) [2,3-C8, 2,3-Octanediol] the “malodour coverage ranking 6 h” value [3, 16] was 2.3, the “malodour coverage ranking 24 h” value [3, 15] was 3.2 and the “malodour coverage ranking 24 h” value [3, 16] was 3.4.

In the case of `CCCCCC(O)CO` (stereo not drawn) [1,2-C7, 1,2-heptanediol], the MIC [1, 9] is reported as 10000 µg/mL, the MIC [2, 10] is reported as 5000 µg/mL and the “MIC (ppm) Corynebacterium xerosis” value [2, 13] is reported as 5 000 ppm. The “malodour coverage ranking 6 h” value [3, 14] was 2.3, the “malodour coverage ranking 6 h” value [3, 16] was 3.5 and the “malodour coverage ranking 24 h” value [3, 14] was 3.4. The “malodour coverage ranking 24 h” value [3, 16] was 3.1, the “malodour coverage ranking 24 h” value [3, 12] was 3.3 and the “malodour coverage ranking 48 h” value [3, 12] was 3.3.

With `CC1CCC(C(C)C)C(OCC(O)CO)C1` (stereo not drawn) [3-((−)-Menthoxy)propane-1,2-diol] the MIC [2, 13] was 500 µg/mL.

`CCCCCCC(O)C(C)O` (stereo not drawn) [2,3-C9, 2,3-nonanediol] showed an MIC [2, 13] of 2500 µg/mL.
